Test results taken from patent publication US8143398B1, “Activity of new N-acylated ciprofloxacin derivatives against faculative intracellular bacteria” (University of South Florida, priority 2010, dated 2012).

Columns and labels:
Bartonella strains = test: Agar dilution testing (MIC); assay type: cell-based; details: growth read after 1 week
Method: Agar was prepared with the N-acyl ciprofloxacin-derived compounds at concentrations of 10 μg/mL, 1.0 μg/mL and 0.1 μg/mL. An equivalent volume of DMSO was added to a control plate. Nine strains of Bartonella were harvested from 4-day-old plates, resuspended in 1.0 mL sterile HIB and adjusted to a McFarland 2.0 turbidity standard. Using a specific template, 12.5 μL of broth suspensions of each Bartonella strain was pipetted onto each of the fluoroquinalone compound-containing chocolate agar plates and the DMSO control plate. After 1 week, the growth of each Bartonella strain was examined and recorded.

[1] = test system: intracellular Bartonella henselae Houston-1; test: Assay for intracellular activity in infected HMEC-1 cells; assay type: cell-based
Method: HMEC-1 cells were maintained in MCDB131 medium supplemented with 10% FBS, 5% L-glutamine, 10 ng/mL epidermal growth factor, 1 μg/mL hydrocortisone, penicillin/streptomycin and amphotericin B. HMEC-1 cells were infected with Bartonella henselae Houston-1 at a multiplicity of infection (MOI) of 100 for 4 hour in medium without ciprofloxacin-derived compounds. After infection, the cells were washed 2× with PBS and then treated with gentamicin (200 μg/mL) for 1 hour. Infected cells were washed as before and medium containing ciprofloxacin-derived compound was added at concentrations of 0.1 μg/mL, 1.0 μg/mL and 10 μg/mL. Infected cells were then incubated for 24, 48 and 96 hour. Ciprofloxacin-derived compounds were then removed, and the infected cells were washed as before and lysed with 0.1% saponin Lysates were plated on chocolate agar. After incubation for 8 days, CFU's were counted to determine the number of viable intracellular bacteria.

Compound | MIC (minimal inhibitory concentration) (Bartonella strains) | activity against intracellular bacteria [1] | decrease in CFUs (intracellular colony forming units) ([1]; infected HMEC cells treated with 1.0 μg/mL for 24 hours)
CC(=O)N1CCN(c2cc3c(cc2F)c(=O)c(C(=O)O)cn3C2CC2)CC1 [RC4-125] | 1.0 to 10.0 mg/L | significant activity against intracellular bacteria | –
CCC(C)(C)C(=O)N1CCN(c2cc3c(cc2F)c(=O)c(C(=O)O)cn3C2CC2)CC1 [RC4-143] | 0.1 to 0.5 mg/L | significant activity against intracellular bacteria | –
CCC(=O)N1CCN(c2cc3c(cc2F)c(=O)c(C(=O)O)cn3C2CC2)CC1 [RC4-147] | – | significant activity against intracellular bacteria | greater than a tenfold decrease
CCCC(=O)N1CCN(c2cc3c(cc2F)c(=O)c(C(=O)O)cn3C2CC2)CC1 [RC5-29] | – | significant activity against intracellular bacteria | –
CC(C)(C)C(=O)N1CCN(c2cc3c(cc2F)c(=O)c(C(=O)O)cn3C2CC2)CC1 [RC5-32] | – | significant activity against intracellular bacteria | –
CC(=O)N1CCN(c2cc3c(cc2F)c(=O)c(C(=O)N2CCN(c4cc5c(cc4F)c(=O)c(C(=O)O)cn5C4CC4)CC2)cn3C2CC2)CC1 [RC5-69] | – | significant activity against intracellular bacteria | –
